Reference: ChEMBL document CHEMBL4368856, “Probing the hras-1Y i-motif with small molecules” (Medchemcomm, 2018)
pKd: −log10 of the molar value. Calls of active or inactive are those of the source. The calls are words filed in the database; no cut-off is given here.

How the values were obtained:
[1] = Binding affinity to 5'-biotin-labelled HRAS-1 Y i-motif DNA (unknown origin) by surface plasmon resonance analysis
[2] = Binding affinity to 5'-AlexaFluor 647-labelled HRAS-1 Y i-motif DNA (unknown origin) by fluorescence titration method
[3] = Binding affinity to HRAS-1 Y i-motif DNA (unknown origin) in pH 8 D2O/DMSO at 100 uM by 1H-WaterLOGSY NMR analysis
[4] = Binding affinity to HRAS-1 Y i-motif DNA (unknown origin) in pH 6 tris-acetate buffer assessed as confirmational change at 10 to 50 uM by circular dichroism analysis
[5] = Binding affinity to HRAS-1 Y i-motif DNA (unknown origin) in pH 6 D2O/DMSO assessed as chemical shift perturbation in i-motif imino proton at 15 to 16 ppm up to 150 uM by NMR analysis
[6] = Binding affinity to HRAS-1 Y i-motif DNA (unknown origin) in pH 6 D2O/DMSO assessed as chemical shift perturbation at 7 to 12 ppm up to 150 uM by NMR analysis
[7] = Binding affinity to HRAS-1 Y i-motif DNA (unknown origin) in pH 6 D2O/DMSO at 100 uM by 1H-WaterLOGSY NMR analysis
[8] = Binding affinity to HRAS-1 Y i-motif DNA (unknown origin) assessed as change in melting temperature by thermal denaturation study
[9] = Binding affinity to HRAS-1 Y i-motif DNA (unknown origin) in pH 6 D2O/DMSO assessed as chemical shift perturbation in Watson-Crick imino proton at 12.5 to 14 ppm up to 150 uM by NMR analysis
[10] = Binding affinity to 5'-AlexaFluor 647-labelled HRAS-1 Y i-motif DNA (unknown origin) after 1 hr by fluorescence assay
[11] = Aggregation property of the compound in D2O/DMSO at 100 uM by 1H-WaterLOGSY NMR analysis; type: physicochemical
[12] = Binding affinity to 5'-ATTO/3'-TAMRA labelled HRAS-1 Y i-motif DNA (unknown origin) up to 252 uM after 10 mins by FRET assay
[13] = Binding affinity to HRAS-1 Y i-motif DNA (unknown origin) in D2O/DMSO at 100 uM by 1H-WaterLOGSY NMR analysis

## CC(c1ccc(-c2cc(N3CCOCC3)nc(N)n2)cc1)C(C)N1CCCC1 (stereo not given)
[1]
  pKd: 3.83
[2]
  pKd: 4.04

## COc1ccc(CCN(C)C2CCCN(c3cc(C)nc(N)n3)C2)cc1OC (stereo not given)
[1]
  pKd: 4.94
[2]
  pKd: 4.80

## COc1ccc(CCN(C)C2CCCN(c3ccnc(N)n3)C2)cc1OC (stereo not given)
[3]
  Activity: inactive
[4]
  Activity: inactive
[5]
  Activity: inactive
[6]
  Activity: Active
[7]
  Activity: Active
[8]
  Activity: inactive
[1]
  pKd: 5.23
[9]
  Activity: Active
[10]
  Activity: Active
[2]
  pKd: 4.45

## COc1ccc(CCN(C)C2CCCN(c3ccnc(N(C)C)n3)C2)cc1OC (stereo not given)
[1]
  pKd: < 3.52
[2]
  pKd: 4.30

## NCCn1cc(C(=O)NC2CCCN(Cc3cccc(O)c3)C2)nn1 (stereo not given)
[1]
  pKd: 3.62
[2]
  pKd: < 3.68

## COc1cc(N2CCCC(N(C)CCc3ccc(OC)c(OC)c3)C2)ncn1 (stereo not given)
[1]
  pKd: 6.70
[2]
  pKd: 6.22

## CC(c1ccc(-c2cc(NCCO)nc(N)n2)cc1)N1CCCC1 (stereo not given)
[3]
  Activity: inactive
[4]
  Activity: Active
[5]
  Activity: Active
[6]
  Activity: inactive
[7]
  Activity: Active
[11]
  Activity: Not Active
[8]
  Activity: inactive
[1]
  pKd: 5.13
[12]
  Activity: inactive
[9]
  Activity: inactive
[10]
  Activity: Active
[2]
  pKd: 5.80
[13]
  Activity: Active

## COc1cc(-c2ccc(C(C)N3CCCCC3)cc2)nc(N)n1 (stereo not given)
[1]
  pKd: 4.29
[2]
  pKd: 3.59

## Nc1nccc(N2CCCC(CCc3ccccc3)C2)n1 (stereo not given)
[1]
  pKd: < 3.52
[2]
  pKd: < 3.68

## COc1ccc(CCCNc2nc(N)nc3c2CCNCC3)cc1OC
[1]
  pKd: 4.11
[2]
  pKd: 4.51

## COc1ccc(CCN(C)C2CCCN(c3ccnc(C)n3)C2)cc1OC (stereo not given)
[1]
  pKd: 6.52
[2]
  pKd: 5.52

## COc1cc(-c2ccc(C(C)N3CCCC3)cc2)nc(N)n1 (stereo not given)
[1]
  pKd: < 3.52
[2]
  pKd: < 3.68

## CC(c1ccc(-c2cc(N3CCCC3)nc(N)n2)cc1)N(C)C (stereo not given)
[1]
  pKd: < 3.52
[2]
  pKd: 3.97
